One compound from ChEMBL document CHEMBL1212888, “NMR spectroscopy and computational analysis of interaction between Serratia marcescens chitinase B and a dipeptide derived from natural-product cyclopentapeptide chitinase inhibitor argifin” (Bioorg Med Chem, 2010) can be followed below.

Broadly, the Kd is the equilibrium constant for the complex coming apart. A high value points to lower affinity.

The test concerns the target T1, Chitinase B (Serratia marcescens, UniProt P11797).
T1 sequence (P11797 whole entry): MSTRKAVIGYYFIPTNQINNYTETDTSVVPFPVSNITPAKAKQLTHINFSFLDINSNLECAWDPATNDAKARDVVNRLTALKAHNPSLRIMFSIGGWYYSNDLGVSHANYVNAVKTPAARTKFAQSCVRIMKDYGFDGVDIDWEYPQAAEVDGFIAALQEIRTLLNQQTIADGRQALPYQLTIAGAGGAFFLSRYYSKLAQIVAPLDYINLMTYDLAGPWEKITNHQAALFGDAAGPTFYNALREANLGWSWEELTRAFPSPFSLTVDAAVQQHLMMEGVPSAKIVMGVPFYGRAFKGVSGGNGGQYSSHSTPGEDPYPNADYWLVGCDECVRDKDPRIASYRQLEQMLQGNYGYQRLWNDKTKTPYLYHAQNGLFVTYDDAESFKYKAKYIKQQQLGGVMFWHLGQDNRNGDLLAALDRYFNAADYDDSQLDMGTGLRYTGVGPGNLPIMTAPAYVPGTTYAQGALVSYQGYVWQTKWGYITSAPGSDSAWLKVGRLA
The experiment in a line: Inhibition of Serratia marcescens chitinase B.

With `CNC(=O)NC(=N)NCCC[C@@H]1NC(=O)[C@@H](C)NC(=O)C[C@@H](C(=O)O)NC(=O)C[C@@H](C(=O)O)NC(=O)[C@H](Cc2ccccc2)N(C)C1=O` [ARGIFIN], the Kd was found to be 33 µM.
